Measured values as given in patent publication US9969716B2, “Indole derivatives as modulators of methyl modifying enzymes, compositions and uses thereof” (Constellation Pharmaceuticals, Inc., priority 2013, dated 2018).

Tests used:
Y641N EZH2 = Y641N EZH2 (Homo sapiens, UniProt Q15910, Y641N); test: Y641N EZH2 assay (as EZH2 assay, H3K27Me2 oligonucleosomes as substrate); type: biochemical
Method: EZH2 Assay: Assays were carried out by mixing rPRC2 together with biotinylated oligonucleosome substrates in the presence of the radio-labeled enzyme co-factor, S-adenosyl-L-methionine (^3H SAM) (Perkin Elmer) and monitoring the enzymatically mediated transfer of tritiated methyl groups from ^3H SAM to histone lysine residues. The amount of resulting tritiated methyl histone product was measured by first capturing the biotinylated oligonucleosomes in streptavidin (SAV) coated FlashPlates (Perkin Elmer), followed by a wash step to remove un-reacted ^3H SAM, and then counting on a TopCount NXT 384 well plate scintillation counter (Perkin Elmer). The final assay conditions for EZH2 were as follows: 50 mM Tris Buffer pH 8.5, 1 mM DTT, 69 μM Brij-35 detergent, 5.0 mM MgCl2, 0.1 mg/mL BSA, 0.2 μM ^3H SAM, 0.2 μM biotinylated oligonucleosomes, 3.6 μM H3K27me3 peptide and 2 nM EZH2.
A 12.5 μL volume of the HMT enzyme, H3K27me3 peptide and oligonucleosome substrate in assay buffer was added to each well of the assay plate using a Multidrop Combi (ThermoFisher). Compounds were pre-incubated with the enzyme for 20 min, followed by initiation of the methyltransferase reaction by addition of 12.5 μL of ^3H SAM in assay buffer (final volume=25 μL). The final concentrations of compounds ranged from a top default concentration of 80 μM down to 0.16 μM in ten 2-fold dilution steps. Reactions were carried out for 60 minutes and quenched with 20 μL per well of 1.96 mM SAH, 50 mM Tris pH 8.5, 200 mM EDTA. Stopped reactions were transferred to SAV coated Flashplates (Perkin Elmer), incubated for 120 min, washed with a plate washer, and then read on the TopCount NXT (1.0 min/well) to measure the amount of methyl histone product formed during the reaction.

EZH2 = EZH2 (Homo sapiens, UniProt Q15910); test: EZH2 assay (rPRC2, 3H SAM methyl transfer to biotinylated oligonucleosomes, FlashPlate); type: biochemical
Chain of EZH2 (Q15910 whole entry): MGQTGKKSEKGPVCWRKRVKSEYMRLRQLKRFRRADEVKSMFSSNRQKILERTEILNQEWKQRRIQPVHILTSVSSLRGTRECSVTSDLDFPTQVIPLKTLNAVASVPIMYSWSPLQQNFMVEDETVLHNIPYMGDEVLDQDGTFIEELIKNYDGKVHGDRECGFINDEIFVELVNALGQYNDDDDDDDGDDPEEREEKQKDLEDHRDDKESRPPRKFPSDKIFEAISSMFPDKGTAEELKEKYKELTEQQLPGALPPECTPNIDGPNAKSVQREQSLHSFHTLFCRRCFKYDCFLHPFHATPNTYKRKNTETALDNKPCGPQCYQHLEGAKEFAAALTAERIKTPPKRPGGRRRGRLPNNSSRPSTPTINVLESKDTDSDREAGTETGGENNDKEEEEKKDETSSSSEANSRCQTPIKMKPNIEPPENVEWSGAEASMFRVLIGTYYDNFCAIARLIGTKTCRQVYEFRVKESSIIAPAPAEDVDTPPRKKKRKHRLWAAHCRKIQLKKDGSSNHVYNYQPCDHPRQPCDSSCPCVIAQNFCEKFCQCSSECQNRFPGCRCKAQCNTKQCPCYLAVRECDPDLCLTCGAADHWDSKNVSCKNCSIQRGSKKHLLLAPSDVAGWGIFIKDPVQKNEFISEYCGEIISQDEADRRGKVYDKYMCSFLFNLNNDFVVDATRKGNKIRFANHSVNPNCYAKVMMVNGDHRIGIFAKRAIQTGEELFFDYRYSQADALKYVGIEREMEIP
Chain of EZH2 (O75530 whole entry partner): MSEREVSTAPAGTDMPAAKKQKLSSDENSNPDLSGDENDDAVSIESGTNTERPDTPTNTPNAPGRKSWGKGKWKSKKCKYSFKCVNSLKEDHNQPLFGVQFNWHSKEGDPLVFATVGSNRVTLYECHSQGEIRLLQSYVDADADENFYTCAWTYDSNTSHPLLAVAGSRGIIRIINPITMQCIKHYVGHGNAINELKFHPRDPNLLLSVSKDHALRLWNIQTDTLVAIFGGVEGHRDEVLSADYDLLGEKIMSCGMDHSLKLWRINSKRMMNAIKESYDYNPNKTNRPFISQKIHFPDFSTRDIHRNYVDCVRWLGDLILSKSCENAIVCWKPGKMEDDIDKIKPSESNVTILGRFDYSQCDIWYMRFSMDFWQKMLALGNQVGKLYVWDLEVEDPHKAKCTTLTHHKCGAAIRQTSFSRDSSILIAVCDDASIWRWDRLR
Chain of EZH2 (Q15022 whole entry partner): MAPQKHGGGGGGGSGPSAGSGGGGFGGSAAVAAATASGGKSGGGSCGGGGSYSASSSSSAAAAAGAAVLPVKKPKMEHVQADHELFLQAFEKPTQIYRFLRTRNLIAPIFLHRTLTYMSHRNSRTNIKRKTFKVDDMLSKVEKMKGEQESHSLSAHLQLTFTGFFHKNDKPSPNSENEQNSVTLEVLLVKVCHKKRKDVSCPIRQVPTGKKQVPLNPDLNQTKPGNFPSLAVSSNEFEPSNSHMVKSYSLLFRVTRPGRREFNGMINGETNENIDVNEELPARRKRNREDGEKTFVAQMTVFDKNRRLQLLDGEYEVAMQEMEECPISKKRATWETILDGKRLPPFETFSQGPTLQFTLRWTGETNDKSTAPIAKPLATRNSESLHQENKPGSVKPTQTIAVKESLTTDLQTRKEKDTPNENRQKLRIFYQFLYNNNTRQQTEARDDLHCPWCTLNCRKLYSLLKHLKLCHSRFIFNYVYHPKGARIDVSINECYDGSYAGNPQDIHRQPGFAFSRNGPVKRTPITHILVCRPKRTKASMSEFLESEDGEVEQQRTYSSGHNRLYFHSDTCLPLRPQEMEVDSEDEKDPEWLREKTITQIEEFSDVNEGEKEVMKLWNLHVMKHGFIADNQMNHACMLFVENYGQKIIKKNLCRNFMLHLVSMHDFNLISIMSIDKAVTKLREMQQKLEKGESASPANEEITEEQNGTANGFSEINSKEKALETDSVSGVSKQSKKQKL
How it was run: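 rPRC2 (2 nM EZH2) with 0.2 μM biotinylated oligonucleosomes, 3.6 μM H3K27me3 peptide, 0.2 μM 3H SAM in pH 8.5 Tris buffer; compounds (80 to 0.16 μM) preincubated 20 min, reaction 60 min, SAH/EDTA quench. Methylated product captured on streptavidin FlashPlates, scintillation counted.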

[1] = system: H3K27me3 mark in HeLa cells; test: H3K27me3 Alpha Hela Assay (AlphaLISA); type: cell-based; details: Homo sapiens, 72 hrs, read-out: EZH2_Cell_H3K27me3_Alpha_HeLa (EC50_K27me3)
How it was run: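 Ten-dose 3-fold series on HeLa cells (1,000/well, 10% DMEM), 72 hrs at 37° C. Lysis, histone extraction, then AlphaLISA with anti-K27me3 acceptor beads, biotinylated anti-H3 C-ter antibody (3 nM final) and streptavidin donor beads (20 μg/mL final); duplicate plate used for viability. DMSO-normalized dose-response curves fitted.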

Chain of Y641N EZH2 (Q15910 whole entry Y641N): as the sequence (Q15910 whole entry) above, with Y641N counted along it
Chain of Y641N EZH2 (O75530 whole entry partner): as the sequence (O75530 whole entry partner) above
Chain of Y641N EZH2 (Q15022 whole entry partner): as the sequence (Q15022 whole entry partner) above

Row | SMILES | IC50 (Y641N EZH2) | IC50 (EZH2) | EC50 [1]
1 | Cc1cc(C)c(CNC(=O)c2c(C)n([C@H](C)C3CCN(S(=O)(=O)CCN4CCCC4)CC3)c3ccccc23)c(=O)[nH]1 [Compound 161] | < 100 nM | < 100 nM | 400 to 2000 nM
2 | Cc1cc(OC(F)F)c(CNC(=O)c2c(C)n([C@H](C)C3CCN(CC(F)F)CC3)c3ccccc23)c(=O)[nH]1 [Compound 110] | < 100 nM | < 100 nM | < 400 nM
3 | Cc1cc(OC(F)F)c(CNC(=O)c2c(C)n([C@H](C)C3CCN(CCC(F)(F)F)CC3)c3ccccc23)c(=O)[nH]1 [Compound 143] | < 100 nM | < 100 nM | < 400 nM
4 | Cc1cc(OC(F)F)c(CNC(=O)c2c(C)n([C@H](C)C3CCN(CC(C)(F)F)CC3)c3ccccc23)c(=O)[nH]1 [Compound 111] | < 100 nM | < 100 nM | < 400 nM
5 | COc1cc(C)[nH]c(=O)c1CNC(=O)c1c(C)n([C@H](C)C2CCN(C(=O)C(C)(C)C)CC2)c2ccccc12 [Compound 129] | < 100 nM | < 100 nM | < 400 nM
6 | COc1cc(C)[nH]c(=O)c1CNC(=O)c1c(C)n([C@H](C)C2CCN(S(=O)(=O)c3ccccc3)CC2)c2ccccc12 [Compound 138] | < 100 nM | < 100 nM | < 400 nM
7 | COc1cc(C)[nH]c(=O)c1CNC(=O)c1c(C)n([C@H](C)C2CCN(C(CF)CF)CC2)c2ccccc12 [Compound 166] | < 100 nM | < 100 nM | > 2000 nM
8 | COc1cc(C)[nH]c(=O)c1CNC(=O)c1c(C)n([C@H](C)C2CCN(c3ncc(Cl)cn3)CC2)c2ccccc12 [Compound 130] | < 100 nM | < 100 nM | < 400 nM
9 | COc1cc(C)[nH]c(=O)c1CNC(=O)c1c(C)n([C@H](C)C2CCN(C(=O)c3ccccc3)CC2)c2ccccc12 [Compound 153] | < 100 nM | < 100 nM | 400 to 2000 nM
10 | COc1cc(C)[nH]c(=O)c1CNC(=O)c1c(C)n([C@H](C)C2CCN(CCCC(F)(F)F)CC2)c2ccccc12 [Compound 152] | < 100 nM | < 100 nM | 400 to 2000 nM
11 | Cc1cc(C)c(CNC(=O)c2c(C)n([C@H](C)C3CCN(c4ccc(CN5CCOCC5)cn4)CC3)c3ccccc23)c(=O)[nH]1 [Compound 159] | < 100 nM | < 100 nM | 400 to 2000 nM
12 | COCCOCCOC(=O)N1CCC([C@@H](C)n2c(C)c(C(=O)NCc3c(OC)cc(C)[nH]c3=O)c3ccccc32)CC1 [Compound 140] | < 100 nM | < 100 nM | < 400 nM
13 | Cc1cc(C)c(CNC(=O)c2c(C)n([C@H](C)C3CCN(c4cccc(CN5CCOCC5)c4)CC3)c3ccccc23)c(=O)[nH]1 [Compound 144] | < 100 nM | < 100 nM | 400 to 2000 nM
14 | CCS(=O)(=O)N1CCC([C@@H](C)n2c(C)c(C(=O)NCc3c(NC)cc(C)[nH]c3=O)c3ccccc32)CC1 [Compound 123] | < 100 nM | < 100 nM | < 400 nM
15 | COc1cc(C)[nH]c(=O)c1CNC(=O)c1c(C)n([C@H](C)C2CCN(c3ccc(C)nc3)CC2)c2ccccc12 [Compound 133] | < 100 nM | < 100 nM | < 400 nM
16 | COc1cc(C)[nH]c(=O)c1CNC(=O)c1c(C)n([C@H](C)C2CCN(c3cccnc3)CC2)c2ccccc12 [Compound 125] | < 100 nM | < 100 nM | < 400 nM
17 | Cc1cc(Cl)c(CNC(=O)c2c(C)n([C@H](C)C3CCN(CCF)CC3)c3ccccc23)c(=O)[nH]1 [Compound 126] | < 100 nM | < 100 nM | < 400 nM
